According to patent US10035801B2, “Pyrazolo compounds and uses thereof” (CONSTELLATION PHARMACEUTICALS, INC., priority 2013, dated 2018):

Molecular target: T1, KDM5A (Homo sapiens, UniProt P29375)
T1 construct: Full length KDM5A enzyme was expressed and purified inhouse; made in house
Test: KDM5 enzyme assay, KDM5A HTRF (Example 463)
Format: biochemical
Conditions: compounds of Examples 1-432; read-out: Example 463 Assay KDM5A HTRF IC50

T1 sequence (P29375 whole entry): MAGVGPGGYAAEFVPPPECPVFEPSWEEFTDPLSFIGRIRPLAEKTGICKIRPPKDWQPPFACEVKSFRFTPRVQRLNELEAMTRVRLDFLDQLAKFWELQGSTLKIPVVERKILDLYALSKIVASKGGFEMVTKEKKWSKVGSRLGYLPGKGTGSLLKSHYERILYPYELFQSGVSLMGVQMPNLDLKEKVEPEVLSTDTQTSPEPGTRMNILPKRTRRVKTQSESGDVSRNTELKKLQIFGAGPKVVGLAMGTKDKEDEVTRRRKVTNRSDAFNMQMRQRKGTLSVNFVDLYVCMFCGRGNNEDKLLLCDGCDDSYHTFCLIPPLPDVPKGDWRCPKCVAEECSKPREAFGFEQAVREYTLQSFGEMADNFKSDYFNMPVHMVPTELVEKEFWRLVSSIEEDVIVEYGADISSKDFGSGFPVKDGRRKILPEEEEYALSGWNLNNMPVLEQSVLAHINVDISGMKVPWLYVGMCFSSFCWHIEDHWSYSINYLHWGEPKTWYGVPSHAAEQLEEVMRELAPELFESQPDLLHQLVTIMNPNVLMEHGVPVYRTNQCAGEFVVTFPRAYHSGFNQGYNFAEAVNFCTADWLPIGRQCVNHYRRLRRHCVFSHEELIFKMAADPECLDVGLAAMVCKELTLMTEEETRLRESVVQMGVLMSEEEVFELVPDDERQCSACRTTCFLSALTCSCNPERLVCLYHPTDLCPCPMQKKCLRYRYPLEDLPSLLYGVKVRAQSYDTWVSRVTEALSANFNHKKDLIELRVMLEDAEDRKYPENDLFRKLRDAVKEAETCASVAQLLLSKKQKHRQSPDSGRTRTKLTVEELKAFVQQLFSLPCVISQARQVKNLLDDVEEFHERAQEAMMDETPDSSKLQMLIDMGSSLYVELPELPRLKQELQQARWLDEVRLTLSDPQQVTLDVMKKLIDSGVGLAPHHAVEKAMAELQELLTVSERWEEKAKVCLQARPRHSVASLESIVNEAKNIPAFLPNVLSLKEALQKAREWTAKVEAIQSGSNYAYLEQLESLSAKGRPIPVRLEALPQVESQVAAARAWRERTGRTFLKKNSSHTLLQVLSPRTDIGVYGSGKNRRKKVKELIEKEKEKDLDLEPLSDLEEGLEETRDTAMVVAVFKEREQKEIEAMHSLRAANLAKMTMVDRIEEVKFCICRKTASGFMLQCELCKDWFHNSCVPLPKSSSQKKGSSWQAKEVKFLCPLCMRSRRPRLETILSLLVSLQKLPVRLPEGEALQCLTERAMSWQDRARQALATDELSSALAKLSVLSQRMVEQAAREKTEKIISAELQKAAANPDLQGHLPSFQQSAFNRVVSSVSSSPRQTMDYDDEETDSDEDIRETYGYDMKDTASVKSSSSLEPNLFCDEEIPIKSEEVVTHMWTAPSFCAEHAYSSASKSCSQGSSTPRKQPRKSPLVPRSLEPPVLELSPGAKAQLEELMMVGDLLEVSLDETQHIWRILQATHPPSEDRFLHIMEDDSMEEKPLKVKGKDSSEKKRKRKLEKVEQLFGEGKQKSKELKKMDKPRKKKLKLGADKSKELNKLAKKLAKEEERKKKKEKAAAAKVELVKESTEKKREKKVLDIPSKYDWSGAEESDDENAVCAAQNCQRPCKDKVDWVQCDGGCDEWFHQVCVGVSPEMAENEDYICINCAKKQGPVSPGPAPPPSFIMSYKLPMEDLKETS

| Structure (SMILES) | IC50 [nM] |
| --- | --- |
| Cc1ccc(-c2[nH]c3c(C#N)cnn3c(=O)c2C(C)C)cc1C [Example 118] | 15 |
| CCOc1ccc(-c2[nH]c3c(C#N)cnn3c(=O)c2C(C)C)cc1Cl [Example 119] | 19 |
| COc1ccc(-c2[nH]c3c(C#N)cnn3c(=O)c2C(C)C)cc1C [Example 120] | 19 |
| Cc1nc2cc(-c3[nH]c4c(C#N)cnn4c(=O)c3C(C)C)ccc2s1 [Example 121] | 10 |
| CC(C)c1c(-c2cnn(Cc3ccccc3Oc3ccccc3)c2)[nH]c2c(C#N)cnn2c1=O [Example 122] | 13 |
| CC(C)c1c(-c2cnn(S(=O)(=O)c3ccccc3)c2)[nH]c2c(C#N)cnn2c1=O [Example 123] | 8 |
| CC(C)c1c(-c2cnn(C(=O)c3ccccc3)c2)[nH]c2c(C#N)cnn2c1=O [Example 124] | 11 |
| CC(C)c1c(-c2cnn(C(c3ccccc3)c3ccccc3)c2)[nH]c2c(C#N)cnn2c1=O [Example 125] | 30 |
| CC(C)c1c(-c2cnn(Cc3ccccc3-c3ccccc3)c2)[nH]c2c(C#N)cnn2c1=O [Example 126] | 8 |
| CC(C)c1c(-c2cnn(CC3CCCCC3)c2)[nH]c2c(C#N)cnn2c1=O [Example 127] | 13 |
| CC(C)c1c(-c2cnn(Cc3cccnc3)c2)[nH]c2c(C#N)cnn2c1=O [Example 128] | 16 |
| C=Cc1c(-c2ccccc2)[nH]c2c(C#N)cnn2c1=O [Example 129] | 23 |
| CC(C)c1c(-c2cc3ccccc3o2)[nH]c2c(C#N)cnn2c1=O [Example 130] | 4.5 |
| CC(C)c1c(/C=C/c2ccccc2)[nH]c2c(C#N)cnn2c1=O [Example 131] | 18 |
| CCc1ccc(-c2[nH]c3c(C#N)cnn3c(=O)c2C(C)C)o1 [Example 132] | 7.2 |
| COCCn1cc(-c2[nH]c3c(C#N)cnn3c(=O)c2C(C)C)cn1 [Example 133] | 11 |
| CC(C)c1c(-c2cnn(Cc3cccc4ccccc34)c2)[nH]c2c(C#N)cnn2c1=O [Example 134] | 5.5 |
| CC(C)c1c(-c2cnn(Cc3ccc(-c4ccccc4)cc3)c2)[nH]c2c(C#N)cnn2c1=O [Example 135] | 5.8 |
| CC(C)c1c(-c2cccc(Oc3ccccc3)c2)[nH]c2c(C#N)cnn2c1=O [Example 136] | 9 |
| CC(C)c1c(C#Cc2ccccc2)[nH]c2c(C#N)cnn2c1=O [Example 137] | 12 |
| CC(C)c1c(-c2ccc(Cl)c(Cl)c2)[nH]c2c(C#N)cnn2c1=O [Example 138] | 15 |
| COc1ccc(-c2[nH]c3c(C#N)cnn3c(=O)c2C(C)C)cc1Cl [Example 139] | 13 |

| Structure (SMILES) | IC50 [nM] |
| --- | --- |
| COc1cc(-c2[nH]c3c(C#N)cnn3c(=O)c2C(C)C)ccc1C [Example 140] | 12 |
| CC(C)c1c(-c2cnn(Cc3cscn3)c2)[nH]c2c(C#N)cnn2c1=O [Example 141] | 9.3 |
| CC(C)c1c(-c2ccc3[nH]ncc3c2)[nH]c2c(C#N)cnn2c1=O [Example 142] | 12 |
| COc1ccc(-c2[nH]c3c(C#N)cnn3c(=O)c2C(C)C)cc1OC [Example 143] | 25 |
| COc1c(C)cc(-c2[nH]c3c(C#N)cnn3c(=O)c2C(C)C)cc1C [Example 144] | 19 |
| CC(C)c1c(-c2cnn(C3COC3)c2)[nH]c2c(C#N)cnn2c1=O [Example 145] | 17 |
| CC(C)c1c(-c2cnn(CCN(C)C)c2)[nH]c2c(C#N)cnn2c1=O [Example 149] | 6 |
| Cc1ccc(-c2[nH]c3c(C#N)cnn3c(=O)c2C(C)C)cc1C#N [Example 150] | 14 |
| CC(C)c1c(-c2ccc3c(c2)OCO3)[nH]c2c(C#N)cnn2c1=O [Example 151] | 17 |
| CC(C)c1c(-c2ccc3c(c2)CCO3)[nH]c2c(C#N)cnn2c1=O [Example 152] | 14 |
| CC(C)c1c(-c2cnn(Cc3cccc(F)c3)c2)[nH]c2c(C#N)cnn2c1=O [Example 154] | 6 |
| CC(C)c1c(-c2cnn(Cc3cccs3)c2)[nH]c2c(C#N)cnn2c1=O [Example 155] | 9.8 |
| CC(C)c1c(-c2cnn(CC(F)(F)F)c2)[nH]c2c(C#N)cnn2c1=O [Example 156] | 22 |
| CC(C)c1c(-c2cnn(Cc3cccc(Cl)c3)c2)[nH]c2c(C#N)cnn2c1=O [Example 157] | 7 |
| CC(C)Cn1cc(-c2[nH]c3c(C#N)cnn3c(=O)c2C(C)C)cn1 [Example 158] | 15 |
| CC(C)c1c(-c2cnn(CCC(F)(F)F)c2)[nH]c2c(C#N)cnn2c1=O [Example 159] | 35 |
| CC(C)c1c(-c2cnn(C(F)F)c2)[nH]c2c(C#N)cnn2c1=O [Example 160] | 19 |
| CC(C)c1c(-c2cnn(CCC#N)c2)[nH]c2c(C#N)cnn2c1=O [Example 161] | 13 |
| CCc1c(-c2ccoc2)n(C)c2c(C#N)cnn2c1=O [Example 162] | 64 |
| CC(C)c1c(-c2cccc(F)c2)n(C)c2c(C#N)cnn2c1=O [Example 163] | 97 |
| CC(C)c1c(-c2cccc(C(F)(F)F)c2)n(C)c2c(C#N)cnn2c1=O [Example 164] | 150 |
| COc1cccc(-c2c(C(C)C)c(=O)n3ncc(C#N)c3n2C)c1 [Example 165] | 61 |

| Structure (SMILES) | IC50 [nM] |
| --- | --- |
| CC(C)c1c(-c2cccc(C#N)c2)n(C)c2c(C#N)cnn2c1=O [Example 166] | 200 |
| CC(C)c1c(-c2cnn(C)c2)n(C)c2c(C#N)cnn2c1=O [Example 167] | 100 |
| CC(C)c1c(-c2cccs2)n(C)c2c(C#N)cnn2c1=O [Example 168] | 46 |
| CC(C)c1c(-c2ccsc2)n(C)c2c(C#N)cnn2c1=O [Example 169] | 47 |
| CC(C)c1c(C2=CCOC2)n(C)c2c(C#N)cnn2c1=O [Example 170] | 210 |
| CC(C)c1c(-c2ccn[nH]2)n(C)c2c(C#N)cnn2c1=O [Example 171] | 37 |
| CC(C)c1c(-c2ccc(C(F)(F)F)cc2)n(C)c2c(C#N)cnn2c1=O [Example 172] | 140 |
| COc1ccc(-c2c(C(C)C)c(=O)n3ncc(C#N)c3n2C)cc1 [Example 173] | 39 |
| CC(C)c1c(-c2ccccc2F)n(C)c2c(C#N)cnn2c1=O [Example 174] | 81 |
| CC(C)c1c(-c2cccc(-c3ccccc3)c2)n(C)c2c(C#N)cnn2c1=O [Example 175] | 43 |
| CCc1c(-c2cccc(-c3ccccc3)c2)n(C)c2c(C#N)cnn2c1=O [Example 176] | 52 |
| CCc1c(-c2ccco2)n(C)c2c(C#N)cnn2c1=O [Example 177] | 38 |
| CC(C)c1c(-c2ccco2)n(C)c2c(C#N)cnn2c1=O [Example 178] | 43 |
| C=Cc1c(C(C)C)c(=O)n2ncc(C#N)c2n1C [Example 179] | 35 |
| C=C(C)c1c(C(C)C)c(=O)n2ncc(C#N)c2n1C [Example 180] | 61 |
| CC(C)c1c(-c2cnn(Cc3ccccc3)c2)n(C)c2c(C#N)cnn2c1=O [Example 181] | 60 |
| CCc1c(-c2cnn(Cc3ccccc3)c2)n(C)c2c(C#N)cnn2c1=O [Example 182] | 130 |
| CC(C)c1c(-c2ccc(F)cc2)n(C)c2c(C#N)cnn2c1=O [Example 183] | 33 |
| CC(C)c1c(-c2ccc(C#N)cc2)n(C)c2c(C#N)cnn2c1=O [Example 184] | 56 |
| CC(C)c1c(-c2ccc(-c3ccccc3)o2)n(C)c2c(C#N)cnn2c1=O [Example 185] | 20 |
